From patent publication US9872904B2, “Photoimmunoconjugates for use in photodynamic therapy” (Fraunhofer-Gesellschaft zur Foerderung der angewandten …, priority 2012, dated 2018)

Tests used:
[1] = system: A431, MDA-MB-231, MDA-MB468 and SiHa cells; assay: Confocal microscopy binding and internalization, EGFR^+ cells; format: cell-based, human
Experimental: (§1) Images were visualized with a TCS SP5 confocal microscope (LEICA Microsystem, Wetzlar, Germany). Cells were prepared as described above for flow cytometry. Binding efficiency was determined by incubating cells with the labeled fusion proteins for 30 min on ice. Internalization was monitored by incubating cells with the labeled fusion proteins for 30 min at 37° C.

[2] = system: A431 cells; assay: ROS generation (carboxy-H2DCFDA fluorescence) in photosensitized A431 cells; format: cell-based, human; conditions: 200 nM
Experimental: (§2) Caspase-3/7 activity in cell lysates was determined using the Apo-ONE Caspase-3/7 assay (Promega, Mannheim, Germany) 24 h after light activation. […] The cells were washed twice with warm PBS containing 2.5% FCS, cultured for 2 h in […] medium and illuminated as described above. Fluorescence readings were taken directly after illumination. A blank probe (cells and medium) reading was used as the background and subtracted from all the sample readings.

[3] = system: CHO-K1; assay: XTT cell proliferation assay (phototoxicity), CHO-K1 negative control; format: cell-based, Chinese hamster; conditions: CHO-K1 exposed to 800 nM; with light activation
Experimental: All cell lines were […], including the EGFR^+ A431, MDA-MB-231, MDA-MB468 and SiHa cells, and the EGFR^− L540, CHO-K1 and HEK-293T cells. A431, L540, CHO-K1 and HEK-293T cells were cultured in RPMI-1640 medium supplemented with 2 mM L-glutamine, 10% (v/v) fetal bovine serum (FBS) and 100 U/ml penicillin-streptomycin. MDA-MB-231, MDA-MB468 and SiHa cells were cultured in DMEM with 10% (v/v) fetal bovine serum (FBS) and 100 U/ml penicillin-streptomycin. All cells were incubated at 37° C. in a 5% CO2 atmosphere. All media and additives were obtained from Invitrogen, Darmstadt, Germany.
(§3) Control cultures were incubated with 500 μg/ml zeocin instead of the photosensitizer. The cells were then irradiated with 24 J/cm^2 broadband visible/near infrared light using Hydrosun type 505, 7-mm water cuvette and orange filter OG590, spectrum in the range 580-1400 nm (Hydrosun Medizintechnik GmbH, Müllheim, Germany) and incubated for a further 24 h at 37° C. in a 5% CO2 atmosphere.
Cell viability was determined using the XTT cell proliferation kit II (Roche, Mannheim Germany), 24 h after light activation. […] Reduction of XTT to formazan by viable tumor cells was monitored colorimetrically at an absorbance wavelength of 450 nm and a reference wavelength of 630 nm using an ELISA plate reader Elisareader ELx808 (Bio-TEK, Bad Friedrichsahll, Germany).

[4] = system: EGFR^− cell lines L540 and CHO-K1; assay: Confocal microscopy binding and internalization, EGFR^− cells; format: cell-based, human; conditions: 4° C. and 37° C.
Experimental: as §1

[5] = system: caspase-3 and caspase-7; assay: Apo-ONE Homogeneous Caspase-3/7 Assay; format: cell-based, human; conditions: 200 nM; 24 h after light activation; A431, MDA-MB-231, MDA-MB468, SiHa and CHO-K1 cells analyzed
Experimental: as §3
as §2, with “activation. Briefly, 100 μl of Apo-ONE reagent was added to the cells, and they were incubated for 6 h before fluorescence readings were taken with an ELISA plate reader Elisareader ELx808 (Bio-TEK, Bad Friedrichsahll, Germany) using an excitation wavelength of 485 nm and an emission wavelength of 535 nm. The concentration of ROS was determined by measuring the 485/535 nm fluorescence ratio of H2DCFDA (Invitrogen, Darmstadt, Germany).” for “activation.”

## scFv-425-SNAP-Ce6
[1]; 0.5 μg, 30 min at 4° C.
  membrane staining (confocal microscopy): strong, specific and homogeneous membrane staining
[1]; 30-min incubation at 37° C.
  internalization (uptake into cells, confocal microscopy): specifically and efficiently taken up
[2]; after light activation
  ROS synthesis (DCF 485/535-nm fluorescence): burst of ROS synthesis
[2]; non-irradiated cells
  ROS levels (DCF 485/535-nm fluorescence): only a small increase in ROS levels
[3]
  cell viability: remained unaffected
[4]
  Ce6 fluorescence signal (confocal microscopy): no signal was detected
[5]
  levels of caspase-3 and caspase-7: increased
